Earlier results as cited in patent US20230413813A1, “ANTIMICROBIAL COMPOSITION COMPRISING A POLYIMIDE” (The Procter & Gamble Company, priority 2022, published 2023).

solubility in water: ~1%
Compound: CC(=O)O.CC(=O)O.NC(=N\CCCCCC/N=C(N)/N=C(\N)Nc1ccc(Cl)cc1)/N=C(\N)Nc1ccc(Cl)cc1 [Chlorhexidine diaceate, Chlorhexidine diacetate]
